We go through 25 compounds from ChEMBL document CHEMBL1130944, “Exploring structure-activity relationships around the phosphomannose isomerase inhibitor AF14049 via combinatorial synthesis” (Bioorg Med Chem Lett, 1998).

Molecules are shown by their SMILES. Converted amounts (≈) assume the structure as drawn.

Target in the first test: not listed separately
The experiment in a line: Compound was tested for inhibition of porcine phosphomannose isomerase (PMI). Details: species or system Sus scrofa; call rule not given here.
For the compound `O=CC(O)C(O)COP(=O)(O)O` (centres undefined), the IC50 was determined as 100 µM.

A further test concerns Saccharomyces cerevisiae. In words: Compound was evaluated for the minimum inhibitory concentration against Invsc 1, a wild type strain of Saccharomyces cerevisiae. It counts as functional.
In turn, `O=C(CCCSc1ccc(Cl)c(Cl)c1)NC1(C(=O)NO)Cc2ccccc2C1` returned an MIC of 100 µM (≈ 43.9 µg/mL).

The next test has as its system Saccharomyces cerevisiae. In words: Compound was evaluated for the minimum inhibitory concentration against Saccharomyces cerevisiae. It counts as functional.
`O=C(CCCSc1ccc(Cl)c(Cl)c1)NC1(C(=O)NO)Cc2ccccc2C1` showed an MIC of 80 µM (≈ 35.1 µg/mL).

The target in another test is T1, Mannose-6-phosphate isomerase (Homo sapiens, UniProt P34949).
T1 sequence (P34949 whole entry): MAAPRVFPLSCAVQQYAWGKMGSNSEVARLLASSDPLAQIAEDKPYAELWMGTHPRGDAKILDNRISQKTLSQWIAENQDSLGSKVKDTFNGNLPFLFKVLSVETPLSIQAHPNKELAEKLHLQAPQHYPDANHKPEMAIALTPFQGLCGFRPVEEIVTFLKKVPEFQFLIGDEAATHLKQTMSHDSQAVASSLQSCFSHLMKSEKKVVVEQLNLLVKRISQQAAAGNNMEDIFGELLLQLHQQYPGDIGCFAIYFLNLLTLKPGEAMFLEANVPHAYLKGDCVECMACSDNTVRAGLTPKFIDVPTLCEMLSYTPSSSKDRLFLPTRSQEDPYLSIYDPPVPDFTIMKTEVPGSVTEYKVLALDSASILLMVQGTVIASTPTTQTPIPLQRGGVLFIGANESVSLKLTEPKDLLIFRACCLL
The experiment in a line: Compound was evaluated for the inhibition constant against human phosphomannose isomerase (huPMI).
Consider `O=C(CCCSc1ccc(Cl)c(Cl)c1)NC1(C(=O)NO)Cc2ccccc2C1`, for which the affinity, expressed as Ki, was 26 µM.

The target in another test is Mannose-6-phosphate isomerase (Saccharomyces cerevisiae) (UniProt P29952). The experiment in a line: Compound was evaluated for the inhibition of yeast phosphomannose isomerase (PMI) at a concentration of 300 uM; inactive.
Mannose-6-phosphate isomerase (Saccharomyces cerevisiae), sequence (P29952 whole entry, looked up): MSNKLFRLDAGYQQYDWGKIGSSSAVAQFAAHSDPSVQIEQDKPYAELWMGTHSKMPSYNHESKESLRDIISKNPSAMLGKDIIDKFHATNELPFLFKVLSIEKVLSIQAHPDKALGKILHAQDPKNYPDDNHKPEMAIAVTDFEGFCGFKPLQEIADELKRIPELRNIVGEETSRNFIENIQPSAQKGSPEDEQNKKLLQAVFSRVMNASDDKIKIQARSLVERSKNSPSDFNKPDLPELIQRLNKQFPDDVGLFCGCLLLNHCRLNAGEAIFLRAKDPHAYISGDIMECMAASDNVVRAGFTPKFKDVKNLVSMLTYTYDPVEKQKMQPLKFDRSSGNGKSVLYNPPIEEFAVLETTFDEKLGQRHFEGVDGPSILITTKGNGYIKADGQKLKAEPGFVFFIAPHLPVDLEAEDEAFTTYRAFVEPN
Take `O=C(CCCOc1ccc(Cl)cc1Cl)NC1(C(=O)NO)CCc2ccccc21` (centres undefined): the IC50 result is “Not Active”.

A further test has as its system Candida albicans. The experiment in a line: Compound was evaluated for the minimum inhibitory concentration against Candida albicans. It counts as functional.
As to `O=C(CCCSc1ccc(Cl)c(Cl)c1)NC1(C(=O)NO)Cc2ccccc2C1`, the MIC was 100 µM (≈ 43.9 µg/mL).

The target of a further test is T1, Mannose-6-phosphate isomerase. The experiment in a line: Compound was tested for inhibition of human phosphomannose isomerase (PMI).
Turning to `O=CC(O)C(O)COP(=O)(O)O` (centres undefined), 100 µM corresponded to half-maximal inhibition (IC50).

The target in another test is T2, Mannose-6-phosphate isomerase (Candida albicans (strain SC5314 / ATCC MYA-2876) (Yeast), UniProt P34948).
T2 sequence (P34948 whole entry): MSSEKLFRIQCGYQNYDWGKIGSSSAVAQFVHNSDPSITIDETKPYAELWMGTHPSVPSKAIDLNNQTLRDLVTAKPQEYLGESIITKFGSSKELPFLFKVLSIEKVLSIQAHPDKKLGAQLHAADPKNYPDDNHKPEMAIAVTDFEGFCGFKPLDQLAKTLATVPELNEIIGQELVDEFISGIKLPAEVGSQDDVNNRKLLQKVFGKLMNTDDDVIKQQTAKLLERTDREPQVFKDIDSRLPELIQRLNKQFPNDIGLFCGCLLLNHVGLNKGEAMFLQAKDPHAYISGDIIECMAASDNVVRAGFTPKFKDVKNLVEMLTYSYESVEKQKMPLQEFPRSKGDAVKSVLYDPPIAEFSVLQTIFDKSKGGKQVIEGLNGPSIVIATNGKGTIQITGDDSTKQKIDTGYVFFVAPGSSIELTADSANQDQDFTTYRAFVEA
The experiment in a line: Inhibition of phosphomannose isomerase enzyme of Candida albicans (CaPMI).
Regarding `COC(=O)C1(NC(=O)CCCOc2ccc(Cl)c(Cl)c2)Cc2ccc3ccccc3c2C1` (centres undefined), the IC50 is > 200 µM.

Consider `CNC(=O)C1(NC(=O)CCCOc2ccc(Cl)cc2Cl)Cc2ccccc2C1`, for which half-maximal inhibition (IC50) was put at 34 µM.

`NC(=O)C1(NC(=O)CCCOc2cc(Cl)c(Cl)cc2Cl)Cc2ccccc2C1` registered an IC50 of 30 µM.

As for `O=C(CCCOc1ccc(Cl)cc1Cl)NC1(C(=O)O)Cc2ccccc2C1`, the half-maximal inhibitory concentration (IC50) is > 500 µM.

`NC(=O)C1(NC(=O)CCCOc2ccc(Cl)c(Cl)c2)Cc2ccccc2C1` showed an IC50 of 15 µM.

Take `O=C(CCCOc1ccc(Cl)cc1Cl)NC1Cc2ccccc2C1`: the IC50 was > 200 µM.

Take `CC(Cc1ccccc1)(NC(=O)CCCOc1ccc(Cl)cc1Cl)C(N)=O` (centres undefined): the IC50 was > 200 µM.

Consider `COC(=O)C1(NC(=O)CCCOc2ccc(Cl)c(Cl)c2)Cc2cc3ccccc3cc2C1`, for which the IC50 was > 200 µM.

In the case of `NC(=O)C1(NC(=O)CCCOc2ccc(Cl)cc2Cl)CCCC1`, the IC50 is > 200 µM.

`NNC(=O)C1(NC(=O)CCCOc2ccc(Cl)cc2Cl)Cc2ccccc2C1` showed an IC50 of 40 µM.

As for `NC(=O)C1(NC(=O)CCCOc2ccc(Cl)cc2Cl)CCc2ccccc21` (centres undefined), the half-maximal inhibitory concentration (IC50) is > 200 µM.

Consider `NC(=O)C1Cc2ccccc2CN1C(=O)CCCOc1ccc(Cl)cc1Cl` (centres undefined), for which the IC50 is > 200 µM.

On to `COC(=O)C1(NC(=O)CCCOc2ccc(Cl)cc2Cl)Cc2ccccc2C1`, for which the IC50 worked out at 34 µM.

For `NC(=O)C1(NC(=O)CCCSc2ccc(Cl)c(Cl)c2)Cc2ccccc2C1`, the IC50 is 6 µM.

`NC(=O)C1(NC(=O)CCCNc2ccc(Cl)cc2Cl)Cc2ccccc2C1` yielded an IC50 of 50 µM.

On to `NC(=O)C1(NC(=O)CCCOc2ccc(Cl)cc2Cl)CCc2ccccc2C1` (centres undefined), for which half-maximal inhibition (IC50) was put at 93 µM.

In the case of `O=C(CCCOc1ccc(Cl)cc1Cl)NC1(C(=O)NO)Cc2ccccc2C1`, it took 39 µM to reach half-maximal inhibition (IC50).

`NC(=O)C1(NC(=O)CCCNc2ccc(Cl)c(Cl)c2)Cc2ccccc2C1`: the IC50 is 21 µM.

For the compound `O=C(CCCOc1ccc(Cl)cc1Cl)NC1(CO)Cc2ccccc2C1`, the IC50 was 140 µM.

As for `NC(=O)C1(NC(=O)CCCSc2ccc(Cl)cc2Cl)Cc2ccccc2C1`, inhibition was half-maximal at 14 µM (IC50).

Turning to `COC(=O)c1ccc2c(c1)CC(NC(=O)CCCOc1ccc(Cl)c(Cl)c1)(C(=O)OC)C2` (centres undefined), the half-maximal inhibitory concentration (IC50) is > 200 µM.

As for `Cc1cc(OCCCC(=O)NC2(C(N)=O)Cc3ccccc3C2)ccc1Cl`, the half-maximal inhibitory concentration (IC50) was determined as 50 µM.

As usually defined, the IC50 is the concentration at which inhibition is half-maximal. The MIC is the lowest concentration that inhibits growth of the organism. For orientation: Ki means a measure of affinity in units of concentration, obtained from inhibition or displacement.
